The values that follow come from patent US8541240B2, “Colorimetric and fluorimetric fluoride sensing” (Florida State University Research Foundation, Inc., priority 2010, dated 2013).

Data set [1] can be described thus: Isothermal titration calorimetry (ITC), F^− recognition. The data set is classed as binding. Particulars: for K1 (association constant) / ΔG1 / K2 (association constant, second binding process) / ΔG2: X^− = F^−, DMSO, 298 K. The protocol: (§1) Isothermal titration calorimetry (ITC) studies were conducted on a MICROCAL VP-ITC ultra-sensitive isothermal titration microcalorimeter. The VP-ITC unit, with a precise temperature control set at 25.0±0.1° C., directly measured heat evolved or absorbed in solution as a result of […] of reactant. For control, a reference cell was filled with dimethyl sulfoxide (DMSO). Titrations were run at 25° C.
(§2) Before the experiment, all the samples were degassed at 25° C. for 10 minutes us the THERMOVAC (a vacuum thermostating system). Each of 40 injections of 6 μL of a halide solution was delivered into a solution (1 mM) of reagent LS over 12 seconds by a syringe spinning at 270 rpm, with a 240 second equilibration time between injections. The instrument was controlled by MICROCAL OBSERVER software comprising a 16-bit A/D converter board for data acquisition, and a second interface board for calorimetric control. Heats of dilution were taken into account using data from control experiments, in which DMSO was injected into reagent LS in DMSO solution.
From these experiments, it has been confirmed that a 1:[…] (reagent LS:F^− anion) type of stoichiometry occurs during F^− titration. Initially, π-anion-π interaction takes place, at concentrations up to one molar equivalent of F^− ion. At concentrations greater than one equivalent of F^−, the NH proton becomes directly involved in a second binding process through hydrogen bonding, a conclusion which is supported by the ^1H NMR experiments described above. The association constants for these two processes have been determined as follows: K1=4.11 10^4 M^−1 and K2=2.69 10^4 M^−1. […]
For orientation: ITC needs no label: the signal is the heat of the interaction.

Data set [2] is described as follows: Isothermal titration calorimetry (ITC), Cl^− recognition. The data set is classed as binding. Particulars: for K1 (association constant) / ΔG1: X^− = Cl^−, ITC, DMSO, 298 K. Here is the method: as §1, §2
(§3) Using these characteristic ITC patterns, one could determine whether a given test solution contains F^− only or, alternatively, whether the test solution contains is a mixture of F^− with another halide anion.
In addition to the above species, the same experimental procedure was followed with control reagent CR.

A short description of data set [3]: Visual color change and UV/Visible spectroscopy during titration with other anions. From the text:
(§4) Unless otherwise indicated, the following procedure was used for all examples involving titration experiments. Generally, titrant solutions comprising the fluoride receptor reagents (e.g., reagents N1, SR, and LR) were maintained at a concentration of 10 μm. Titrand solutions containing fluoride anion were 30 times more concentrated (e.g., 300 μm) to minimize dilution effects during titration. Unless otherwise indicated, the solvent for all solutions was dimethyl sulfoxide (DMSO).
(§5) Several experiments were conducted to observe the visible color changes that occur when NDI-based receptor reagents N1, SR, and LR were titrated with solutions containing F^− ions. Titrations were carried out using F^− in a number of solvents, including aqueous dimethyl sulfoxide (DMSO), dimethylformamide (DMF), dimethylacetamide (DMAc), acetonitrile, acetone, and tetrahydrofuran, with each solution containing up to 15% of H2O. Otherwise, the titrations followed the standard titration procedure outlined above.
(§6) As indicated above, UV/Visible light (UV/Vis) spectra were recorded on a PerkinElmer Lambda-25 UV/Vis spectrophotometer. For each experiment, receptor N1, SR, and CR concentrations were maintained at 10 μM. Titration of the F^− ion was conducted using the standard titration procedure outlined above.
Similarly, FIG. 5, panel (c) is a representation of the data obtained when receptor reagent N1 was titrated with various other […], including Cl^−, Br^−, I^−, NO3^−, acetate anion (AcO^−), and H2PO4^−.

Data set [4] is described as follows: Visual color change and UV/Visible spectroscopy during F^− titration. Particulars: for visible color change during F^− titration: solvents with up to 15% H2O, orange ≦5 equiv, pink >5 equiv F^−.
Text: as §4, §5, §6

Data set [5] is described as follows: Fluoride anion sensing in toothpastes (UV/Vis). Particulars: 10 μM receptor, wet DMSO. Here is the method:
For the detection of F^− ion in toothpastes, small samples (1 gram) of each of two toothpastes (COLGATE anticavity fluoride toothpaste and ORAJEL toddler fluoride-free toothpaste) were extracted separately in 2 mL of aqueous DMSO. The COLGATE toothpaste contained 0.24% (w/v) NaF. Each resulting suspension was filtered to obtain colorless clear solution, which were separately added to 10 μM SR solutions.
The black trace represents SR without toothpaste; the light trace, SR with anticavity adult toothpaste containing 0.24% NaF; and the medium trace, SR with F^− free toddler toothpaste.

Data set [6] in a line: Fluorescence spectroscopy during F^− titration. Particulars: for selectivity for F^− over other halide ions: color and emission spectra, Cl^−, Br^−, I^− up to 30 molar equivalents, DMSO.
Text: as §4
Fluorescence spectroscopy was introduced to determine the sensitivity of NDI-based F^− ion sensors at very low concentrations. Fluorescence spectra were collected on a HORIBA JOBIN YVON FLUOROMAX-4 spectrofluorometer.

The next data set is described as follows: Cyclic voltammetry. It is filed as physicochemical. Particulars: 1 mM in 0.1 M TBAPF6/DMF, Ag/AgCl reference, 100 mV/s, room temperature. The protocol:
Cyclic voltammetry (CV) was conducted on a PRINCETON APPLIED RESEARCH (PAR) VERSASTAT-3-200 potentiostat/galvanostat instrument using a standard electrochemical cell, consisting of a Pt-disk working electrode, Pt-wire counter electrode, and Ag/AgCl (3 N aq. NaCl) reference electrode. CV was recorded at 1 mM of reagent N1 in 0.1 M TBAPF6/DMF supporting electrolyte solution at room temperature at 100 mV/s scan rate (FIG. 11).

The nature of data set [7]: Isothermal titration calorimetry (ITC), I^− recognition. Particulars: solution with DMSO. It is filed as binding. Here is the method: as §1, §2, §3
The nature of data set [8]: Isothermal titration calorimetry (ITC), Br^− recognition. The data set is classed as binding. Particulars: solution with DMSO. The protocol:
as §1, §2, §3

For `O=C(Nc1cccc(NC(=O)c2cccc(C(=O)Nc3cccc(NC(=O)c4ccncc4)c3)c2)c1)c1ccncc1` [CR, reference compound], in data set [1], the “K1 (association constant)” value was determined as 259 M⁻¹ and the ΔG1 is -3.28 kcal/M. In addition, in data set [2], the “K1 (association constant)” value came out at 100 M⁻¹ and the ΔG1 was -2.71 kcal/M. In addition, in data set [3] (any anion), the “visible color change in response to anions” value is reported as “did not change color in response to any anion”. Besides, the “UV/Vis spectroscopic / colorimetric response to F^− titration” value in [4] (receptor 10 μM, DMSO) is recorded as “virtually no colorimetric response”.

On to `O=C(Nc1cccc(N2C(=O)c3ccc4c5c(ccc(c35)C2=O)C(=O)N(c2ccncc2)C4=O)c1)c1cccc(C(=O)Nc2cccc(N3C(=O)c4ccc5c6c(ccc(c46)C3=O)C(=O)N(c3ccncc3)C5=O)c2)n1` [SR], for which, in data set [5], the “response to F^− containing toothpaste solution (COLGATE, 0.24% NaF)” value is “turned light orange” and the “response to F^−-free ORAJEL toothpaste” value is reported as “did not change the spectrum of the receptor”. Moreover, in data set [1], the “K1 (association constant)” value was determined as 9.03e+08 M⁻¹; the “K2 (association constant, second binding process)” value was 442000 M⁻¹; the ΔG1 was -12.20 kcal/M; the ΔG2 is -7.70 kcal/M. In data set [2], the “K1 (association constant)” value was determined as 1730 M⁻¹ and the ΔG1 is -4.41 kcal/M. The “optical response to Cl^− alone” value in [3] (Cl^−, 30 molar equivalents) is listed as “no optical response”. The “selectivity for F^− over other halide ions” value in data set [6] is “excellent selectivity”. The “amplification of a new peak at 465 nm” value in [6] (receptor 1 nM in DMSO, F^− 30 nM, 381 nm excitation) amounted to 20 fold. The “visible color change during F^− titration” value in data set [4] is given as “immediately changed color in a distinct two-step pattern”. Besides, the “color change with F^− in the presence of Cl^−” value in data set [4] (titrated with F^− in the presence of 30 molar equivalents of Cl^−) is “showed the characteristic two-step color change associated with F^− even in the presence of Cl^−”.

On to `O=C1c2ccc3c4c(ccc(c24)C(=O)N1c1ccncc1)C(=O)N(c1ccncc1)C3=O` [N1], for which, in “Cyclic voltammetry”, the “E1 ½, one-electron reduction to radical anion” value is −342 mV and the “E2 ½, reduction to dianion” value is reported as −804 mV. Moreover, in data set [1], the “K1 (association constant)” value was found to be 8470 M⁻¹ and the ΔG1 was -5.36 kcal/M. Moreover, in data set [2], the “K1 (association constant)” value turned out to be 53 M⁻¹ and the ΔG1 was -2.35 kcal/M. For the same compound, the “optical response to other anions” value in [3] (Cl^−, Br^−, I^−, NO3^−, AcO^−, H2PO4^−, UV/Vis) is “did not show any optical response”. The “increase of the 465 nm emission peak” value in data set [6] (receptor 10 μM in DMSO, 30 equiv. of F^−) is on record as 5.5 fold. For the same compound, in [4], the “visible color change during F^− titration” value is listed as “immediately changed color in a distinct two-step pattern”.

`O=C(Nc1cccc(NC(=O)c2cccc(C(=O)Nc3cccc(NC(=O)c4ccc(N5C(=O)c6ccc7c8c(ccc(c68)C5=O)C(=O)N(c5ccncc5)C7=O)cc4)c3)c2)c1)c1ccc(N2C(=O)c3ccc4c5c(ccc(c35)C2=O)C(=O)N(c2ccncc2)C4=O)cc1` [LR] displayed an association constant Ka in data set [7] of 105 M⁻¹. The same compound registered an association constant Ka in data set [8] of 145 M⁻¹. Also, in [1], the “K1 (association constant)” value amounted to 41100 M⁻¹; the “K2 (association constant, second binding process)” value was 26900 M⁻¹; the ΔG1 is -6.29 kcal/M; the ΔG2 was -6.04 kcal/M. The “F^− binding in presence of excess Cl^− ion” value in data set [1] (excess of Cl^−) is reported as “binds F^− selectively”. This compound yielded an association constant Ka in data set [2] (Cl^−, solution with DMSO) of 319 M⁻¹. In addition, in data set [2], the “K1 (association constant)” value is 319 M⁻¹ and the ΔG1 is -3.42 kcal/M. The “selectivity for F^− over other halide ions” value in data set [6] is listed as “excellent selectivity”. Further, in [4], the “visible color change during F^− titration” value is listed as “immediately changed color in a distinct two-step pattern”.
